Source: ChEMBL document CHEMBL5518157, “Strategies of targeting CYP51 for IFIs therapy: Emerging prospects, opportunities and challenges” (Eur J Med Chem, 2023)
≈ marks a conversion by molar mass, not a printed value. Values belong to the compound of their own block, whether it stands above or below them.

Columns and labels:
Candida albicans [1] = assay: Antifungal activity against Candida albicans SC5314 assessed as reduction in microbial growth incubated for 24 hrs by serial dilution method; assay type: functional
Trichophyton rubrum [2] = assay: Antifungal activity against Trichophyton rubrum 0501124 assessed as inhibition of fungal growth incubated for 24 hrs by broth microdilution method; assay type: functional
Candida albicans [3] = assay: Antifungal activity against Candida albicans assessed as reduction in microbial growth; assay type: functional
Trichophyton rubrum [4] = assay: Antifungal activity against Trichophyton rubrum assessed as fungal growth inhibition incubated for 5 to 7 days by NCCLS based assay; assay type: functional; conditions: time 5-7 day
Nannizzia gypsea = assay: Antifungal activity against Microsporum gypseum assessed as fungal growth inhibition incubated for 48 hrs by microplate reader assay; assay type: functional
Candida albicans [5] = assay: Antifungal activity against Candida albicans ATCC 76615 assessed as fungal growth inhibition incubated for 5 to 7 days by NCCLS based assay; assay type: functional; conditions: time 5-7 day
Candida albicans [6] = assay: Antifungal activity against Candida albicans ATCC 10231 assessed as growth inhibition measured for 24 hrs by CLSI based method; assay type: functional
Pichia kudriavzevii = assay: Antifungal activity against Candida krusei ATCC 6258 assessed as reduction in fungal growth by NCCLS method; assay type: functional
Candida albicans [7] = assay: Antifungal activity against Candida albicans ATCC 10231 assessed as growth inhibition measured after 48 hrs by CLSI based method; assay type: functional, organism-based; conditions: ATCC 10231, 48 h
Candida albicans [8] = assay: Antifungal activity against Candida albicans SC5314 assessed as reduction in fungal growth incubated for 24 hrs by serial dilution method; assay type: functional
[Candida] auris = Antifungal activity against Candida auris CBS 12373 assessed as reduction in microbial growth incubated for 24 hrs by serial dilution method; assay type: functional; conditions: Candidozyma auris
Cytochrome P450 3A4 = Cytochrome P450 3A4 (Homo sapiens, UniProt P08684); assay: Inhibition of CYP3A4 (unknown origin); assay type: ADME
Chain of Cytochrome P450 3A4 (P08684 whole entry): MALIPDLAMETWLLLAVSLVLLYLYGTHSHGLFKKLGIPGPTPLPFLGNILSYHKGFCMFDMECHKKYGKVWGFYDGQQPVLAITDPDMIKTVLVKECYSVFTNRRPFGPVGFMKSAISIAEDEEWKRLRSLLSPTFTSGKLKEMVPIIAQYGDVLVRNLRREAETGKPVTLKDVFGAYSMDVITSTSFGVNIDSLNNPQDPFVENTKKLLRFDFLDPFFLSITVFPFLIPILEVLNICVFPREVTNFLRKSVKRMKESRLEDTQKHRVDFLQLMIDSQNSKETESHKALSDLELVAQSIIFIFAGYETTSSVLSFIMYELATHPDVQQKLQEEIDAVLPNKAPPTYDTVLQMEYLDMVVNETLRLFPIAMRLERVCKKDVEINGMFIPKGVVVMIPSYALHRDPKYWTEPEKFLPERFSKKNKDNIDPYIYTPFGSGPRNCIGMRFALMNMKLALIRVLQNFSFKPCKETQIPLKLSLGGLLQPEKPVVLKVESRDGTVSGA

Candida albicans [9] = assay: Antifungal activity against Candida albicans ATCC 96901; assay type: functional
Candida albicans [10] = assay: Antifungal activity against Candida albicans assessed as reduction in fungal growth incubated for 24 hrs by broth microdilution method; assay type: functional, organism-based
Candida albicans [11] = assay: Antimicrobial activity against Candida albicans 90028 assessed as microbial growth inhibition by broth microdilution method; assay type: functional
Nakaseomyces glabratus = assay: Antifungal activity against Candida glabrata ATCC 15126 assessed as reduction in fungal growth incubated for 24 hrs by CLSI based microdilution analysis; assay type: functional
Aspergillus fumigatus = assay: Antifungal activity against Aspergillus fumigatus CGMCC3 7795 assessed as reduction in fungal growth incubated for 48 hrs by CLSI based microdilution analysis; assay type: functional

- MIC50 (Candida albicans [1]): ≤ 0.001 µg/mL
Compound: O[C@@](Cn1cnnn1)(c1ccc(F)cc1F)C(F)(F)c1ccc(-c2ccc(OC(F)(F)F)cc2)cn1

- MIC50 (Trichophyton rubrum [2]): > 64 µg/mL
Compound: OC(Cn1cnnn1)(c1ccc(F)cc1F)C(F)(F)c1ccc(C#Cc2ccc(F)cc2)cn1 (centres undefined)

- MIC50 (Candida albicans [3]): 0.031 µg/mL
- MIC50 (Trichophyton rubrum [2]): 8 µg/mL (≈ 13.7 µM)
Compound: N#Cc1ccc(COc2ccc(C#Cc3ccc(C(F)(F)C(O)(Cn4cnnn4)c4ccc(F)cc4F)nc3)cc2)cc1 (centres undefined)

- MIC80 (Trichophyton rubrum [4]): 0.125 µg/mL (≈ 0.248 µM)
Compound: O=c1n(-c2ccc(C(F)(F)C(O)(Cn3cnnn3)c3ccc(F)cc3F)nc2)cnn1C1CCCC1 (centres undefined)

- MIC80 (Nannizzia gypsea): 4 µg/mL (≈ 7.9 µM)
- MIC80 (Trichophyton rubrum [4]): 2 µg/mL (≈ 3.95 µM)
- MIC50 (Trichophyton rubrum [2]): 2 µg/mL (≈ 3.95 µM)
Compound: CC(C)(C)Cn1ncn(-c2ccc(C(F)(F)C(O)(Cn3cnnn3)c3ccc(F)cc3F)nc2)c1=O (centres undefined)

- MIC80 (Nannizzia gypsea): 4 µg/mL (≈ 7.71 µM)
- MIC80 (Trichophyton rubrum [4]): 2 µg/mL (≈ 3.86 µM)
- MIC50 (Trichophyton rubrum [2]): 2 µg/mL (≈ 3.86 µM)
Compound: O=c1n(-c2ccc(C(F)(F)C(O)(Cn3cnnn3)c3ccc(F)cc3F)nc2)cnn1C1CCCCC1 (centres undefined)

- MIC (Candida albicans [5]): 0.125 µg/mL (≈ 0.374 µM)
Compound: C[C@H](NC(=O)c1ccc2ccccc2n1)C(=O)NCc1ccncc1

- MIC (Candida albicans [5]): 0.125 µg/mL (≈ 0.39 µM)
Compound: O=C(CNC(=O)c1ccc2ccccc2n1)NCc1ccncc1

Compound: Clc1ccc(C(Cn2ccnc2)[Se]Cc2ccccc2Cl)c(Cl)c1 (centres undefined)
- MIC (Candida albicans [6]): 0.01 µg/mL (≈ 0.0225 µM)

Compound: Fc1ccc([Se]C(Cn2ccnc2)c2ccc(F)cc2F)cc1 (centres undefined)
- MIC (Candida albicans [6]): 0.02 µg/mL (≈ 0.0525 µM)

- MIC80 (Pichia kudriavzevii): 0.003 µg/mL (≈ 0.00678 µM)
Compound: CC(C)Cc1ccc([C@H](C)C(=O)NC[C@](O)(Cn2cncn2)c2ccc(F)cc2F)cc1

- MIC80 (Pichia kudriavzevii): 0.007 µg/mL (≈ 0.0146 µM)
Compound: C[C@H](C(=O)NC[C@](O)(Cn1cncn1)c1ccc(F)cc1F)c1ccc(-c2ccccc2)c(F)c1

- MIC50 (Candida albicans [8]): 0.5 µg/mL (≈ 1.53 µM)
- MIC50 ([Candida] auris): 0.8 µg/mL
- IC50 (Cytochrome P450 3A4): 30.5 µM
Compound: CC(C)(C)c1ccc(-c2nnc(Nc3ccc(Cl)cc3)o2)cc1
- IC50 (Candida albicans [7]): 0.9 µg/mL (≈ 2.75 µM)

Compound: Cc1ccccc1[Se]C(Cn1ccnc1)c1ccc(Cl)cc1 (centres undefined)
- MIC (Candida albicans [6]): 0.03 µg/mL (≈ 0.0798 µM)

Compound: Clc1ccc(C(Cn2ccnc2)[Se]C(Cn2ccnc2)c2ccc(Cl)cc2)cc1 (centres undefined)
- MIC (Candida albicans [3]): 2 µg/mL

- MIC (Candida albicans [9]): 0.25 µg/mL (≈ 0.392 µM)
Compound: Clc1ccc(C(Cn2ccnc2)[Se][Se]C(Cn2ccnc2)c2ccc(Cl)cc2Cl)c(Cl)c1 (centres undefined)

- MIC (Candida albicans [5]): 0.25 µg/mL (≈ 0.627 µM)
Compound: O=C(N[C@@H](Cn1ccnc1)C(=O)NCc1ccccc1)c1ccc2ccccc2c1

Compound: Cc1cccc(C)c1[Se]C(Cn1ccnc1)c1ccc(Cl)cc1 (centres undefined)
- MIC (Candida albicans [3]): 0.03 µg/mL

- MIC (Candida albicans [5]): 0.125 µg/mL (≈ 0.366 µM)
Compound: C[C@H](NC(=O)c1ccc2c(c1)OCCO2)C(=O)NCc1ccncc1

Compound: Cc1cccc(C)c1[Se]C(Cn1ccnc1)c1ccc(F)cc1 (centres undefined)
- MIC (Candida albicans [6]): 0.03 µg/mL (≈ 0.0804 µM)

Compound: CCC/C=C/C=C/C=C(\C)[C@@H]1OC[C@H](C)[C@H](OC)[C@H]1OC(=O)CN
- IC50 (Candida albicans [10]): 0.47 µM

- MIC (Candida albicans [5]): 0.125 µg/mL (≈ 0.338 µM)
Compound: CC(C)[C@H](NC(=O)c1ccc2c(c1)OCCO2)C(=O)NCc1cccnc1

Compound: CC(C)[C@@H](C)/C=C/[C@@H](C)[C@H]1CC[C@H]2C3=CC=C4C[C@@H](O)CC[C@]4(C)[C@H]3CC[C@]12C [ERGOSTEROL]
- MIC90 (Candida albicans [11]): 512 µg/mL (≈ 1290 µM)

Compound: O=C(O)c1cc(O)c(O)c(O)c1 [GALLIC ACID]
- MIC (Nakaseomyces glabratus): 12.5 µg/mL (≈ 73.5 µM)

- MIC50 (Aspergillus fumigatus): 0.25 µg/mL (≈ 0.428 µM)
- MIC50 (Candida albicans [3]): 0.007 µg/mL
Compound: N#Cc1ccc(COc2ccc(C#Cc3ccc(C(F)(F)[C@](O)(Cn4cnnn4)c4ccc(F)cc4F)nc3)cc2)cc1 [VT-1598]
